The record followed here is ChEMBL document CHEMBL4371076 (J Med Chem, 2019).

Activity calls are given as the source filed them.

The nature of series [1]: Plasma concentration in CD1 mouse model of chronic constriction injury-induced cold allodynia at 3 mg/kg, ip dosed at 5 weeks post surgery and measured 60 mins post dose. Type of series: ADME, organism-based.
Series [2] in a line: Unbound plasma concentration in CD1 mouse model of chronic constriction injury-induced cold allodynia at 30 mg/kg, ip dosed at 5 weeks post surgery and measured 60 mins post dose. The note with it: in vivo, 1 h. Type of series: ADME, organism-based.
Series [3] deals with Sodium channel protein type 2 subunit alpha (Homo sapiens, UniProt Q99250). As to the kind of experiment: Inhibition of human Nav1.2 expressed in HEK293 cells after 600 secs at -60 mV holding potential by ion works barracuda population patch clamp method. Format: cell-based. In general terms: Patch clamp records ionic current or voltage across a cell membrane.
Series [4] in a line: Unbound plasma concentration in CD1 mouse model of chronic constriction injury-induced cold allodynia at 10 mg/kg, ip dosed at 5 weeks post surgery and measured 60 mins post dose. Format: ADME, organism-based. To be noted: in vivo, 1 h.
The species entered for series [5] is Mus musculus. As to the kind of experiment: Reduction in mechanoreceptor-mediated afferent transmission in mouse sural nerve assessed as decrease in mechanically elicited afferent firing at 10 to 30 uM measured at 20 mins post dose at 1.6 to 980 mN threshold pressure. Format: functional, tissue-based.
Series [6] concerns the target Sodium channel protein type 4 subunit alpha (Homo sapiens, UniProt P35499). The series is described as follows: Inhibition of human Nav1.4 expressed in HEK293 cells after 600 secs at -60 mV holding potential by ion works barracuda population patch clamp method. Format: cell-based.
Series [7] in a line: Unbound plasma concentration in CD1 mouse model of formalin-induced nociception at 30 mg/kg, ip. Type of series: ADME, organism-based. The note with it: in vivo.
Series [8] is described as follows: Toxicity in CD1 mouse model of formalin-induced nociception assessed as hypothermia at 30 mg/kg, po. Format: organism-based. The note with it: in vivo.
Series [9] in a line: Toxicity in CD1 mouse model of formalin-induced nociception assessed as prostration or sedation at 30 mg/kg, po. Format: organism-based. The note with it: in vivo.
The nature of series [10]: Unbound drug level in DRG neurons of CD1 mouse model of formalin-induced nociception at 30 mg/kg, po. Type of series: ADME, organism-based, DRG neuron. The note with it: in vivo.
Series [11] in a line: Drug uptake in DRG neurons of CD1 mouse model of formalin-induced nociception at 30 mg/kg, po. Type of series: ADME, organism-based, DRG neuron. To be noted: in vivo, read-out: Drug uptake.

Sodium channel protein type 2 subunit alpha, sequence (Q99250 whole entry): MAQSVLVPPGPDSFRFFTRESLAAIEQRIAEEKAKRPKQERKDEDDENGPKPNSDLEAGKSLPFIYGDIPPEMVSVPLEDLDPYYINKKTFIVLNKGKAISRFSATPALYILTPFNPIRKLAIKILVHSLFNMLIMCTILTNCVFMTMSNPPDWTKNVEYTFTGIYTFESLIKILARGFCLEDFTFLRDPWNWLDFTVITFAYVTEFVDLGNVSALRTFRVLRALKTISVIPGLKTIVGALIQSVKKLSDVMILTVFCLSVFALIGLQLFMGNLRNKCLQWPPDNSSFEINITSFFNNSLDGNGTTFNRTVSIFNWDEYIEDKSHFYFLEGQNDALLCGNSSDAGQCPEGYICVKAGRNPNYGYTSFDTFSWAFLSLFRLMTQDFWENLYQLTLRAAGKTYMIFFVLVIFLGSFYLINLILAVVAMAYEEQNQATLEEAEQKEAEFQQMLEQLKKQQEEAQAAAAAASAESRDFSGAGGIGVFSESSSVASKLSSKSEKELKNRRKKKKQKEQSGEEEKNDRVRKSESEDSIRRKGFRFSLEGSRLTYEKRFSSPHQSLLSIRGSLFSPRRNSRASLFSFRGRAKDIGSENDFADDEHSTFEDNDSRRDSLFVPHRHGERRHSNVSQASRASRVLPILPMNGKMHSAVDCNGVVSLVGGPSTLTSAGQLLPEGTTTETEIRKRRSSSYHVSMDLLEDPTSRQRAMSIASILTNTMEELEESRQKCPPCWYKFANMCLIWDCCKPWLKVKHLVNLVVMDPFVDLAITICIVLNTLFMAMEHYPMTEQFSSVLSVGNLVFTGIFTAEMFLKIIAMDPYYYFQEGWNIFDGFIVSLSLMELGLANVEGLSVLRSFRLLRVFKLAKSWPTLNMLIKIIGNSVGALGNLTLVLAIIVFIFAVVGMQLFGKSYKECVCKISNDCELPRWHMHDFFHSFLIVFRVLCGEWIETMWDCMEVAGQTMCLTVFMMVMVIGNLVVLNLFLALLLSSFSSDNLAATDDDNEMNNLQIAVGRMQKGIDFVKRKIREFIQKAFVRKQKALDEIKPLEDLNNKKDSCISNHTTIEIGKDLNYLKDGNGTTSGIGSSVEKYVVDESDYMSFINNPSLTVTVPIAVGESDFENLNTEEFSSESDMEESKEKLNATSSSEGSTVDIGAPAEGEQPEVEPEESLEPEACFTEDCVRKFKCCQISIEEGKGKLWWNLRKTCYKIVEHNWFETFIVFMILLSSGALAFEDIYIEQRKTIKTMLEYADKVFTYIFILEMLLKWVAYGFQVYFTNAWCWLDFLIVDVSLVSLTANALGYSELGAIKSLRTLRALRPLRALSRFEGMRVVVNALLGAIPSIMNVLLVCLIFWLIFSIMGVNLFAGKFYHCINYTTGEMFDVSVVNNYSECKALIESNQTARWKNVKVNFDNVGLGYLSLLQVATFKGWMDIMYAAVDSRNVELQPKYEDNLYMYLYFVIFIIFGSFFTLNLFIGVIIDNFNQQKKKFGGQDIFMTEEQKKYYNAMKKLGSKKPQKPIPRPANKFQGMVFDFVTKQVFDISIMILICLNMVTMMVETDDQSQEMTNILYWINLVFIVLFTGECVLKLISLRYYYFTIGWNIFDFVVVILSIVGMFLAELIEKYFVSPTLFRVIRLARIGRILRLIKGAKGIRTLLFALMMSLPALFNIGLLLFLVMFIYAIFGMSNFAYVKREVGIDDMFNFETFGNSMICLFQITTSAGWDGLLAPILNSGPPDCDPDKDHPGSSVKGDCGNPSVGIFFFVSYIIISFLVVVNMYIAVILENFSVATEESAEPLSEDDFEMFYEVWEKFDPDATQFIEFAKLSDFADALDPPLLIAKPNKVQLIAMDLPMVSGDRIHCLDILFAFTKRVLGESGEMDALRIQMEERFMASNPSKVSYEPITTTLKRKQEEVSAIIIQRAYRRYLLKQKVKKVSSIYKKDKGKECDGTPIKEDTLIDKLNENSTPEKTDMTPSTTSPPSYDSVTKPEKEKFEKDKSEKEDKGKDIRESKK
Sodium channel protein type 4 subunit alpha, sequence (P35499 whole entry): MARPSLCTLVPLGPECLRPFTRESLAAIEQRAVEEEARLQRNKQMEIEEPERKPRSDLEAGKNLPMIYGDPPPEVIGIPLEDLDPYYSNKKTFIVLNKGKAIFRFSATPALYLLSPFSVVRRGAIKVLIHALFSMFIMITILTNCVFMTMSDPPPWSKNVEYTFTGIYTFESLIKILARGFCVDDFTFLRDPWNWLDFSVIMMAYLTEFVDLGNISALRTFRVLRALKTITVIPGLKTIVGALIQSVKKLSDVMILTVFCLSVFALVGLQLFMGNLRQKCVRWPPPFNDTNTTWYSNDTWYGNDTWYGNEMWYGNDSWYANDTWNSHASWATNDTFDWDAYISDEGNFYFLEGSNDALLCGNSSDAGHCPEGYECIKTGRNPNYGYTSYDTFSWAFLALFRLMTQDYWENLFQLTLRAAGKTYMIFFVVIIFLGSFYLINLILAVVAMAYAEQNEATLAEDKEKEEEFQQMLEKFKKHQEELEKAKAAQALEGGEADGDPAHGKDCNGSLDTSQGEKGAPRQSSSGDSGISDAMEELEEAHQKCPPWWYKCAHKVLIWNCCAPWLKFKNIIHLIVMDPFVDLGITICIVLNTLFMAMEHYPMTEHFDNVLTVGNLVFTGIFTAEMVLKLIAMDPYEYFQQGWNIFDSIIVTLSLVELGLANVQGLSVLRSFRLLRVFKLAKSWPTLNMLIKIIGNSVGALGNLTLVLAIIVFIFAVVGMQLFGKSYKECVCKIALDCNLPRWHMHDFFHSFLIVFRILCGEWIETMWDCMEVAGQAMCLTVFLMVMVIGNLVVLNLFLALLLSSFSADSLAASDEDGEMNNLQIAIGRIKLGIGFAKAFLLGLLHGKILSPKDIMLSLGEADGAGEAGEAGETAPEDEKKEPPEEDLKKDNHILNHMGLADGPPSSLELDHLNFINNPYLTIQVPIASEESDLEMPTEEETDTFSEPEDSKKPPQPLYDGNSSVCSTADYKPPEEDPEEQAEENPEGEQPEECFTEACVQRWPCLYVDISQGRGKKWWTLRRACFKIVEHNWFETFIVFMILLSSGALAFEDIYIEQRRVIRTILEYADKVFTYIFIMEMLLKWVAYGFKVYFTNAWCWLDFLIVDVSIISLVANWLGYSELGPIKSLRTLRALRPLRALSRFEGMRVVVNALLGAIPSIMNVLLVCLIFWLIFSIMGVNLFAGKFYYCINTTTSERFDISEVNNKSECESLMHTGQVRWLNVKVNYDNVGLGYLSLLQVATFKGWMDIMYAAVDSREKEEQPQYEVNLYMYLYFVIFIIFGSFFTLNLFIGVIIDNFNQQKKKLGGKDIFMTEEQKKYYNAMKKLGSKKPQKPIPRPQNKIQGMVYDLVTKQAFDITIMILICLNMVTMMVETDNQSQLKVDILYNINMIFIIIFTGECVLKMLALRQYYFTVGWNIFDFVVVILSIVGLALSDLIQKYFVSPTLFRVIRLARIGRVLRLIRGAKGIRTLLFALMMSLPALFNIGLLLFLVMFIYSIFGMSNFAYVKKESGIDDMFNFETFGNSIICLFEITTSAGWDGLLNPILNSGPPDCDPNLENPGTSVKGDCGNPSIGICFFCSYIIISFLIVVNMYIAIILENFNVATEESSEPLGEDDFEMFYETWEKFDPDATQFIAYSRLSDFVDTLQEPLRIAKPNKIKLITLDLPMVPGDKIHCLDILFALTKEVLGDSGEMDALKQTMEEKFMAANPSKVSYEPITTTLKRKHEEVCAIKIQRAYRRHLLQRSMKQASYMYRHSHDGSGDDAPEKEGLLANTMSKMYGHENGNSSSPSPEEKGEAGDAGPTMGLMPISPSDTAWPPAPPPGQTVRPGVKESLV

As usually defined, the IC50 is the concentration needed to halve the response being measured. High values mean a need for much substance, low ones inhibition by little substance. Turning to `CC(C)COc1ncc(-c2cn(C)c3cc(C(=O)NS(C)(=O)=O)ccc23)cc1Cl`, in series [1], the concentration at 1 h is 3300 nM. Also, the “Cp(f)” value turned out to be 136 nM in [2], 54 nM in [4] and 118 nM in series [7]. Also, the IC50 in [3] came out at 16 µM; in series [6] it was 4.8 µM. Besides, the outcome in series [5] was Active.
`CC(C)COc1ccc(-c2cn(C)c3cc(C(=O)NS(C)(=O)=O)c(F)cc23)cn1`: the Activity result in [8] and in series [9] was “Non-Toxic” in each case. Further, the “Drug uptake(free)” value in [10] worked out at 84 nM. The concentration in series [11] worked out at 990 nM.
